Experiments:
VIM-2 = biological target: T1, VIM-2 (Escherichia coli, UniProt Q5U7L7); experiment: Incubation of AM-A with metalloenzymes in Zn2+-depleted buffer; format: biochemical; conditions: extended incubation, AM-A 0.5 mM
T1 construct: All β-lactamase overexpression constructs were generated without the leader peptide in a pET-28b plasmid containing a N-terminal His Tag; His tag (N); made in house; host or cells: E. coli BL21(DE3)
Protocol: Enzyme (500 nM) was incubated with AM-A (500 μM) for 10 minutes. 20 μL of the above was diluted with 180 μL nitrocefin or FAPGG substrate for the following final concentrations: Enzyme (50 nM), FAPGG (50 μM)/nitrocefin (20 μM), AM-A (50 μM). Buffer (50 mM HEPES pH 7.5, 300 mM NaCl) was stirred overnight with 2 g/100 mL Chelex-100 (Biorad; Richmond, Calif.). Assays were read in 96-well microplate format at 490 nm using a Spectramax reader (Molecular Devices) at 37° C.

K. pneumoniae N11-2218 = experiment: Microdilution checkerboard / MIC; format: cell-based, Klebsiella pneumoniae; conditions: checkerboard MIC, NDM-1 expressing CRE
Protocol: (§1) FIC values were determined by standard methods^27 setting up checkerboards with 8 concentrations of each meropenem and AM-A in serial ½ dilutions. Experiments were done in duplicate and the mean used for calculation. The MIC for each compound was the lowest concentration of compound showing no growth. The FIC for each compound was calculated as the concentration of the compound in the presence of co-compound for a well showing no growth, divided by the MIC for that compound. The FIC index is the sum of the two FICs.

[1] = system: panel of 16 clinical CRE isolates; experiment: FIC index determination; format: cell-based, Enterobacteriaceae; conditions: meropenem and AM-A combinations; ≤0.5 defined as synergistic
Protocol: as §1

Pseudomonas spp. = experiment: Clinical isolate screening with meropenem; format: cell-based, Pseudomonas aeruginosa
Protocol: Various concentrations of AM-A were chosen in combination with 2 mg/L of meropenem which is the EUCAST breakpoint for resistance^28. Synergistic properties of the two compounds were examined in a micro-titre tray using BHI as the growth medium (Oxford Science Park, England) and an inoculum of 0.5 MacFarland. All plates contained the control strains Escherichia coli ATCC 25922 and Pseudomonas aeruginosa ATCC 27853. Overall, 226 non-clonal clinical isolates (Enterobacteriaceae, P. aeruginosa and Acinetobacter spp.) were challenged containing one of the following MBLs: SPM-1 (n=17), AIM-1 (n=8), NDM-1 (n=67), VIM-type (n=114) or IMP-type (n=20). […] Plates were incubated at 37° C. and read after 18 hrs.

[2] = system: E. coli BW25113ΔbamBΔtolCΔaraDAB::pLac(blaNDM-1); experiment: Cell-based screen for NDM-1 inhibitors with sub-lethal meropenem; parameters: species or system Escherichia coli; conditions: in combination with meropenem
Protocol: A cell-based screen for inhibitors of the NDM-1 metallo-β-lactamase using a collection of natural product extracts derived from environmental microorganisms was performed. To increase the sensitivity of the screen to MBL inhibitor discovery a test strain of Escherichia coli BW25113 in which the bamB and tolC genes were independently deleted (E. coli BW25113ΔbamBΔtolC) was generated. BamB is involved in outer membrane porin assembly and disruption results in increased permeability to small molecules^19 and TolC is a part of the tripartite small molecule efflux systems such as AcrA-AcrB-TolC that serve to actively eliminate small molecules from the cell^20. Therefore, E. coli BW25113ΔbamBΔtolC increases the sensitivity of the screen to discovery of “hits”. This strain was further modified by integrating the blaNDM-1β-lactamase gene under control of the pLac promoter into the chromosome [E. coli BW25113ΔbamBΔtolCΔaraDAB::pLac(blaNDM-1)]. This strain was screened in the presence of a sub-lethal concentration of meropenem (of the minimum inhibitory concentration 0.125 μg/mL) in combination with ˜500 natural product extracts.
˜500 natural product extracts were screened against E. coli BW25113ΔbamBΔto1CΔaraDAB::pLac(blaNDM-1) in combination with 0.125 μg/mL meropenem. […] Z′ was determined to be 0.77, indicating an excellent screening window^22.

[3] = rats, i.v.; cited from earlier work
[4] = in vivo; cited from earlier work

## N[C@H](CN[C@H](CN[C@@H](CC(=O)O)C(=O)O)C(=O)O)C(=O)O [AM-A, aspergillomarasmine A]
VIM-2
  inactivation of VIM-2: complete inactivation
K. pneumoniae N11-2218
  synergy between meropenem and AM-A: synergy
[1]
  Fractional inhibitory concentration (FIC) index: < 0.1
Pseudomonas spp.
  activity in Pseudomonas spp. (potentiation of meropenem): active
[2]
  restoration of meropenem antibiotic activity: restored meropenem activity
[3]
  LD50: 250 mg/kg
[4]
  effect on mean atrial blood pressure: no effect
